In series [1] the test system is C6 cells (rat glioma). As to the kind of experiment: In vitro inhibition of CHP-induced oxidative stress (DCF fluorescence) in C6 cells. It counts as cell-based. The conditions noted are these: 500 µM CHP, compound 4, 20, 100 and 500 µM, 30 minutes at 37 °C, range given for both cell lines together. The protocol:
(§1) The method used was essentially the one reported by Rüweler M. et al. ("Inhibition of peroxide-induced radical generation by plant polyphenols in C6 astroglioma cells" (2008) Toxicol in vitro 22, 1377-81), with a few minor modifications.
(§2) The cells were seeded in phenol-red free DMEM (Sigma Aldrich) into 96-well plates with 5% FBS and 20 mM HEPES at a density of 40,000 cells/well. After 48 hours, the medium was substituted by HBSS (Hanks' Balanced Salt Solution, Sigma) containing 10 µM of dihydro-2',7'-dichlorofluorescein diacetate (H2DCF-DA, Sigma Aldrich) and incubated in darkness for 30 minutes at 37 °C, in order to load the cells with fluorescent dye. H2DCF-DA was hydrolyzed enzymatically by the intracellular esterases to form non-fluorescent H2DCF, which was then rapidly oxidized to form 2',7'-dichlorofluorescein (DCF) being highly fluorescent in the presence of reactive species (RS). The intensity of DCF fluorescence is directly proportional to the amount of RS formed.
(§3) After carrying out two washes, the cells were exposed to 500 µM of CHP and various concentrations (4, 20, 100 and 500 µM) of the compounds of the invention for 30 minutes at 37 °C. Fluorescence was then measured, after cell washing, by a microplate reader at an excitation wavelength of 485 nm and an emission wavelength of 535 nm.
(§4) Six wells per plate per concentration of test composition (compound + CHP) and per control (HBSS without CHP) were measured and 12 wells were used as reference for CHP-induced stress. In addition, each 96-well plate contained 6 wells that received the highest concentration of the tested compounds without CHP, to investigate whether the compounds of the invention alone were able to induce cellular radical formation.
(§5) When using this assay, it should be borne in mind that DCF fluorescence is a generalized indicator of oxidative stress rather than of any particular reactive species, i.e. it is not a direct assay for H2O2 or other reactive species (Halliwell B, Whiteman M. (2004) "Measuring reactive species and oxidative damage in vivo and in cell culture: how should you do it and what do the results mean?" Br. J. Pharmacol. 142 231-255). Therefore, when an increase in DCF fluorescence induced by exposure of cells to CHP was measured, as was undertaken in these assays, it was not possible to deduce which reactive species was responsible. Inhibition of CHP-induced fluorescence was evaluated by means of different concentrations of the compounds of the invention and comparative compounds such as Trolox and edaravone.

Series [2] relates to BAEC cells (bovine aortic endothelial). As to the kind of experiment: In vitro inhibition of CHP-induced oxidative stress (DCF fluorescence) in BAEC cells. As to conditions: 500 µM CHP, compound 4, 20, 100 and 500 µM, 30 minutes at 37 °C, range given for both cell lines together. It is filed as cell-based. The protocol: as §1, §2, §3, §4, §5
Series [3] in a line: TEAC method (Trolox Equivalent Antioxidant Capacity Assay). The conditions noted are these: ratio of gradient to gradient of reference (trolox); 37 °C, 650 nm, pH 4.5. An excerpt: This assay is used to measure the total antioxidant activity of pure substances, biological fluids and plant compounds and is based on the reaction of antioxidants with the cation radical ABTS^˙+ (2,2'-azinobis(3-ethylbenzothiazolin-6-sulphonate)). This cation radical is metastable and has to be generated just before the experiment by reacting ABTS with hydrogen peroxide in the presence of HRP.
This radical can be reduced, with consequent loss of absorbance, by an antioxidant whose scavenging capacity can be measured spectrophotometrically at 650 nm. The test is carried out at 37 °C and the results are obtained from a comparison with Trolox (a synthetic antioxidant and hydrophilic analogue of vitamin E).
The ABTS solution S1 was prepared as follows: • 20 mg of ABTS were added to 50 mM of citric acid buffer (40 ml) at pH=4.5 and to the resulting solution there was added an aqueous solution of HRP (4.4 mg, 400 µl) and an aqueous solution of H2O2 (10 µl of a 30% solution diluted with 16.3 ml of water).
For each of the compounds (2), (6) and (7), as synthesized above, there was prepared a 600 µM solution in water, methanol or DMSO according to its solubility, as well as a Trolox solution as reference.
Each solution was diluted to produce 6 solutions each at a concentration between 25 µM and 300 µM. From each of the diluted and divided solutions, there were withdrawn 20 µl to which 200 µl of solution S1 were then added.
The decrease in absorbance of each solution thus obtained was monitored at 650 nm until a stable value was reached (about 90 minutes).
For each set of 6 solutions and for the reference trolox solution, the absorption was given in graph form as a function of the amount of compound (nmol) in the solution. The gradient of the straight line obtained by linear interpolation was determined according to the least squares method. The TEAC value of each compound of the invention is given in the table below and is expressed as the ratio between the gradient of the resulting straight line and the gradient of the reference (trolox) straight line.

The subject of series [4] is cerebral oxidative stress induced in mice by doxorubicin. As to the kind of experiment: In vivo assay of cerebral oxidative stress induced in mice by doxorubicin. The protocol:
The assay was carried out on compounds (1) and (3)-(6) and on edaravone (E) as comparative compound.
10 mice were used for each treatment group. For each compound 50 mg/kg were administered intraperitoneally (IP) for three consecutive days (day 0, 1 and 2); half the animals (5) also received IP 16.7 mg/kg of doxorubicin immediately after the first treatment (day 0). On the day after the last administration (day 3) the animals were killed by neck dislocation and the brains were removed, weighed and frozen in liquid nitrogen.
For the analyses of oxidative stress, 100 mg/ml of brain homogenate was prepared in Hebe buffer (pH 7.4 EDTA/HEPES^(**)) containing a mixture of enzyme inhibitors (Leupeptin, Pepstatin, Aprotinin, BHA). • ^(*) Hypotonic Extraction Buffer • ^(**) 4-2-hydroxyethyl-1-piperazinyl-ethanesulphonic acid
The evaluation parameters were: • BrW/BWi: ratio between final brain weight and initial body weight (day 0); • Prot. Hmg: total proteins in the homogenate (BCA method, i.e. bicinchoninic acid); • Prot. Ox: oxidized proteins in the Hmg by means of a colorimetric method using […] (DNPH); • GSH: reduced glutathione in the supernatant (sn) of the Hmg, obtained after precipitation with metaphosphoric acid (MPA), by means of a colorimetric method using […] (DTNB); • CAT: catalase in the Hmg by a colorimetric method using potassium dichromate; • SOD: superoxide dismutase by a colorimetric method using SOD Reagent (xanthine, EDTA, nitroblue tetrazole, Na2CO3, BSA, i.e. bovine serum albumin); • GST: glutathione S-transferase in the supernatant by a colorimetric method using chlorodinitrobenzene (CDNB) and GSH; and • GPx: glutathione peroxidase in the supernatant after addition of GSH and tert butyl hydroperoxide (t-BuOOH), heating and precipitation with MPA; followed by GSH method with DTNB.
All the parameters, with the exclusion of Brain/BWi and Prot. Hmg, were normalized for total Hmg proteins (Table 3). The D value standard deviations and the % incidence relative to V are given in italics.
The mean % effect, on all the parameters simultaneously, of the triple treatment in the healthy animals, as mean percentage variation relative to the vehicle (table 4). This value is useful as an approximate safety index of the oxidative state of the brain, i.e. the capacity of the compounds of the invention not to alter cerebral homeostasis in healthy animals.
The effect of the tested compounds on the "oxidized" animals was given as % inhibition relative to the percentage variation due to doxorubicin alone. The effect of the compounds on the oxidized animals can be expressed both as a function of the values of the vehicle (healthy, vehicle only) and as a function of the value of its own control (healthy, compound only): • Vehicle: percentage [(Compound+D)/V]x100/[(V+D)/V]x100 • Its own: percentage [(Compound+D)/Compound]x100/[(V+D)/V]x100

Setting [5] is: % variation relative to the vehicle, healthy animals, 50 mg/kg IP x3 days (D = doxorubicin alone).

Molecules are shown by their SMILES.

As for `CC1=NN(c2ccccc2)C(=O)C1` [edaravone, reference compound], the “Inhibition of CHP-induced fluorescence” value in series [1] was 10-50%. Besides, the “Inhibition of CHP-induced fluorescence” value in series [2] is 10-50%. In series [3], the TEAC stood at 0.9. For the same compound, in series [4] (setting [5]), the Brain/BWi is reported as 2.7%, the CAT/pr was -5.0%, the GPX/pr is given as -6.7% and the GSH/pr is on record as -5.5%. Besides, in series [4] (setting [5]), the GST/pr is -3.1%, the “Prot. Hmg” value was 3.7%, the “Prot. Ox/pr” value is recorded as -2.3% and the SOD/pr is -2.2%. Further, the “overall inhibitory effect on the doxorubicin-induced oxidation” value in series [4] (both with respect to the Vehicle and Its own) is reported as “about 75%”. Moreover, the “Mean % variation relative to the vehicle” value in series [4] (healthy animals, 50 mg/kg IP days 0, 1 and 2, mean over all parameters, approximate safety index (D = doxorubicin alone), 50 mg/kg) is reported as -2.7%.

For `Cc1c(C)c2c(c(C)c1O)CCC(C)(C(=O)O)O2` (stereo not drawn) [Trolox, reference compound], the “Inhibition of CHP-induced fluorescence” value in series [1] and in series [2] was 10-50% each time.
